Assay results from patent publication US20210002209A1, “NOVEL CRYSTALLINE FORMS OF TAMIBAROTENE FOR TREATMENT OF CANCER” (TRANSGENEX NANOBIOTECH, INC., priority 2018, published 2021).
Read-outs that look alike come from different tables or passages of the source.

What was measured:
Type in all cases: cell-based
[1] = tested on: H1299; test: IC50 studies, monolayer cell culture assay (CellTiter-Glo cell viability, 72 hours); details: H1299, lung
Method: (§1) Cancer cell lines listed in Table 1, were subjected for testing anti-cancer potency or the half maximal inhibitory concentration (IC50) of tamibarotene molecular complexes.
(§2) The SK-ES-1, U-2 OS, and SAOS-2 cells were cultured in a growth medium that is ATCC-formulated McCoy's 5a Medium Modified, Catalog No. 30-2007. The PC-3, PANC-1, SK-Mel-5, A549, H460, and H1299 were cultured in a growth medium that is ATCC-formulated Dulbecco's Modified Eagle's Medium (DMEM), Catalog No. 30-2002. The cells were seeded on 96-well microtiter plates with 3500 cells per well and cultured in an incubator (Model 3120, Thermo Scientific, USA) with a constant temperature at 37° C. and 5% carbon dioxide (CO2) gas for 24 hours.
(§3) The new tamibarotene molecular complexes were made into a series with concentration of 200 nM to 40 nM, 8 nM, 1.6 nM, 0.32 nM, and 0.064 nM. […]
(§4) The treated cells in the 96 well plate was then further cultured at the same conditions for 72 hours and then subjected for a final cell viability measurement. The measurement used a homogeneous method to determine the number of metabolically active cells presented in each of treatments. A testing reagent for the measurement is a mixture solution of the CellTiter-Glo® 2.0 reagent (CTG, Promega Cat #G9243, USA) and growth medium in 1:1 ratio in this respect.
(§5) The 96-well plate with the new molecular complex treated cells was taken out from incubator after the 72 hours of incubation, and the treatment solution in each well was removed using a multichannel pipette, and 100 μl of the testing reagent were added into each well. The plate was then placed on a plate shaker for 15 min. The plate was covered with a piece of aluminum foil to protect the CTG luminescence during the shaking time.
(§6) Then 90 μl of the 100 μl testing reagent were transferred into an opaque-walled 96-well plate for the CTG luminescence reading on a plate reader (SynergyH4 Hybrid Reader, Biotek, USA). The luminescence intensity of each treatment was positively correlated with the number of cells survived during the treatments.
(§7) All the treatment data was normalized by comparing with the control samples that had only growth medium without any molecular complexes. The half maximal inhibitory concentration (IC50) data was calculated using the nonlinear regression model and dose-responses (inhibition) curve built in the software. Each of treatments was performed in three replications each time and repeated three times for validation. The IC50 average […] (Avg) and standard deviation (STDV) were calculated based on the three replications.

[2] = tested on: PC-3; test: as above; details: PC-3, prostate
Method: as §1, §2, §3, §4, §5, §6, §7

[3] = tested on: A549; test: as above; details: A549, lung
Method: as §1, §2, §3, §4, §5, §6, §7

[4] = tested on: U-2 OS; test: as above; details: sarcoma
Method: as §1, §2, §3, §4, §5, §6, §7

[5] = tested on: SK-ES-1; test: as above; details: SK-ES-1, sarcoma
Method: as §1, §2, §3, §4, §5, §6, §7

[6] = tested on: SAOS; test: as above; details: sarcoma
Method: as §1, §2, §3, §4, §5, §6, §7

[7] = tested on: H460; test: as above; details: H460, lung
Method: as §1, §2, §3, §4, §5, §6, §7

[8] = tested on: SK-Mel-5; test: as above; details: SK-Mel-5, skin
Method: as §1, §2, §3, §4, §5, §6, §7

[9] = tested on: sarcoma cell line SK-ES-1; test: Tumor sphere formation assay; details: SK-ES-1 spheres, diameter over 50 μm, day 6
From the text: Cancer stem cells (CSCs) are defined as a small subset of cells within a tumor with the ability to self-renew and often drive tumor progression and recurrence after chemotherapy treatment (Zhou et al. (2015) “A Reliable Parameter to Standardize the Scoring of Stem Cell Spheres,” PLOS One 10(5); e0127348). It is important to study the responses of cancer stem cells or the tumors treated with the new molecular complexes. We have assessed CSC growth using tumor sphere formation assay, which involves culturing cancer cells in low attachment plates in serum free media. Sphere size and diameter was measured using ImageJ software and statistical analysis was performed using Graph Pad Prism Software. […]
On the day 6 of seeding, 10 μl of NucBlue Live Cell Stain ReadyProbes (Invitrogen Cat #R37605, USA) were added into each well for staining to visualize the live cells under the blue fluorescent light. […] Then the plate was brought to the Keyence imaging device (Keyence America, All-in-One Fluorescence Microscope BZ-X800, USA) for image scanning. […]
The sphere image area is calculated as a sum of image area of every individual sphere with diameter over 50 μm in each treatment well. […]
The sarcoma spheres were stained with NucBlue Live Cell Stain ReadyProbes (Invitrogen Cat #R37605) and imaged under 4× objective lens on Keyence imaging scanner (Keyence America, All-in-One Fluorescence Microscope BZ-X800).

[10] = Test I, read-out: IC50 Test(I) Avg
[11] = Test II, read-out: IC50 Test (II) Avg
[12] = Test III, read-out: IC50 Test (III) Avg

## CC1(C)CCC(C)(C)c2cc(NC(=O)c3ccc(C(=O)O)cc3)ccc21.O=C(O)c1cc(O)c(O)c(O)c1 [TAM-gallic acid]
[1]; [10]
  IC50: 11.2 µM
[1]; [11]
  IC50: 24.8 µM
[1]; [12]
  IC50: 11.7 µM
[2]; [10]
  IC50: 81 µM
[2]; [11]
  IC50: 90.3 µM
[2]; [12]
  IC50: 108 µM
[3]; [10]
  IC50: 39.9 µM
[3]; [11]
  IC50: 43.3 µM
[3]; [12]
  IC50: 39.9 µM
[4]; [10]
  IC50: 16.4 µM
[4]; [11]
  IC50: 13 µM
[4]; [12]
  IC50: 10.6 µM
[5]; [10]
  IC50: 10.1 µM
[5]; [11]
  IC50: 5.94 µM
[5]; [12]
  IC50: 6.76 µM
[6]; [10]
  IC50: 11.6 µM
[6]; [11]
  IC50: 9.98 µM
[6]; [12]
  IC50: 14.9 µM
[7]; [10]
  IC50: 42 µM
[7]; [11]
  IC50: 41.9 µM
[7]; [12]
  IC50: 41.3 µM
[8]; [10]
  IC50: 47.5 µM
[8]; [11]
  IC50: 64.2 µM
[8]; [12]
  IC50: 88.5 µM
[9]
  tumor spheres size compared with the parent molecule: reduced tumor spheres size
